Assay results published in patent US6211200A, “Metal complexes” (SmithKline Beecham Corporation, priority 1998, dated 2001).

T1: G-CSF receptor (Mus musculus, UniProt P40223)
T1 construct: they express endogenous G-CSF receptors; endogenous in cells; host or cells: NFS60 (murine myeloid cell line) containing a G-CSF-responsive element / luciferase reporter
T1 sequence (P40223 26-837): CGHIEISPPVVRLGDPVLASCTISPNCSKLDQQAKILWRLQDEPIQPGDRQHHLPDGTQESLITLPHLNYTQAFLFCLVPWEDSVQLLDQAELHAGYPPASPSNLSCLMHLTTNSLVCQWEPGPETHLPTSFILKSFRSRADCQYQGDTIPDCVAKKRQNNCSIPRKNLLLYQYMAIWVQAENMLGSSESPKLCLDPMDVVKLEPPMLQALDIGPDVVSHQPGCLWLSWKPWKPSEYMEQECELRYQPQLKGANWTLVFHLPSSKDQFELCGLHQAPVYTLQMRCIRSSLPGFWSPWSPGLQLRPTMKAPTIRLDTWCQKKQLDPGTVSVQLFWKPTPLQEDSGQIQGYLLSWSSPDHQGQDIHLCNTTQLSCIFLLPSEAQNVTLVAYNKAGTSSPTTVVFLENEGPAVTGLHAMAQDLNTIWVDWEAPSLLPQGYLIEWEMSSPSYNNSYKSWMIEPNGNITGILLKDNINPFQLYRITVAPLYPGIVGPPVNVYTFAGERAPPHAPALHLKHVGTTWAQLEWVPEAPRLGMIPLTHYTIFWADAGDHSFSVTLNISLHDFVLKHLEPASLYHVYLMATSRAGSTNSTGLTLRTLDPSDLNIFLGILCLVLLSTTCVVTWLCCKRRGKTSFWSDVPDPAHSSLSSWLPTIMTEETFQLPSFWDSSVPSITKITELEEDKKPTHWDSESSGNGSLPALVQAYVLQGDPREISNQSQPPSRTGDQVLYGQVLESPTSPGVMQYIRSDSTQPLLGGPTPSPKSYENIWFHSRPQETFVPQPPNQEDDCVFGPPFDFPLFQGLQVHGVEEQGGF

B1: recombinant G-CSF: natural ligand for the G-CSF receptor (G-CSF or recombinant G-CSF) (protein, UniProt P09919 31-207, looked up)
Granulocyte …: TPLGPASSLPQSFLLKCLEQVRKIQGDGAALQEKLVSECATYKLCHPEELVLLGHSLGIPWAPLSSCPSQALQLAGCLSQLHSGLFLYQGLLQALEGISPELGPTLDTLQLDVADFATTIWQQMEELGMAPALQPTQGAMPAFASAFQRRAGGVLVASHLQSFLEVSYRVLRHLAQP

Legend:
G-CSF receptor [1] = biological target: T1, G-CSF receptor; test: Luciferase reporter gene assay in G-CSF-responsive NFS60 cells; type: cell-based, murine; conditions: for activation in the luciferase assay: concentration range of 1 to 100 micromolar
Procedure: Activity of compound 1a is below the threshold of 150% over background. The study was performed as a Luciferase assay configured on the G-CSF-responsive NFS60 cell line as described in Tian et al., Science 281, 257-259 (1998). The experiments shown in FIGS. 2-8 used the same NFS60 cell line.
Compounds of the present invention were tested for potency as agonist of the G-CSF receptor in a Luciferase reporter gene assay such as described in Tian et al., Science 281, 257-259 (1998). The NFS60 cells (Holmes, et al., Proc. Natl. Acad. Sci. USA 82:6687-6691 (1985)) were selected because they express endogenous G-CSF receptors closely matching the pattern of STAT (signal transducers and activators of transcription) activation observed in primary murine and human bone marrow cells.

[2] = test system: peripheral blood neutrophil and monocyte count; test: In vivo evaluation of peripheral blood neutrophil and monocyte count; conditions: mouse
Procedure: Compounds of this invention are also tested for activity in the following assays: CFU-G assay (an example of which is described in King […]., Badger A. M., Pelus L. M. Regulation of colony stimulating activity production from bone marrow stromal cells by the hematoregulatory peptide, HP-5. Exp. […] M.; King, […].; DeMarsh, […]., In vivo modulation of hematopoiesis by a novel hematoregulatory peptide Exp-Hematol. 1994 22(3):239-47).

G-CSF receptor [3] = biological target: T1, G-CSF receptor; test: Luciferase assay in NFS60 cells in the presence of EDTA; type: cell-based, murine; conditions: for G-CSF agonist activity in the presence of EDTA (metal ion mediation): FIGS. 3 and 4
Procedure: The media in this assay contained a small amount (1-5 uM) of zinc(II).
In order to determine the requisiteness of zinc chelation of small organic molecules to agonist activity at the G-CSF receptor, the above luciferase assay was performed in the presence of EDTA.

CFU-G = CFU-G assay; type: cell-based, murine; conditions: concentration range of 1 to 100 micromolar
Procedure: Compounds of this invention are also tested for activity in the following assays: CFU-G assay (an example of which is described in King A. G., Talmadge J., Badger A. M., Pelus L. M. Regulation of colony stimulating activity production from bone marrow stromal cells by the hematoregulatory peptide, HP-5. Exp. Hematol. 20:223-228, 1992) and in vivo evaluation of peripheral blood neutrophil and monocyte count in the mouse (an example of which is described in Pelus, L. M.; King, A. G.; Broxmeyer, H. E.; DeMarsh, P. L.; Petteway, S. R.; Bhatnagar, P. K., In vivo modulation of hematopoiesis by a novel hematoregulatory peptide Exp-Hematol. 1994 22(3):239-47). In order to confirm the requirement for zinc(II) chelation, the above CFU-G assay was also conducted in the presence of EDTA.

G-CSF/Fc fusion protein = test: Isothermal titration microcalorimetry; type: binding; conditions: in the presence of zinc
Procedure: Zinc-mediated affinity of compounds from this invention for the G-CSF receptor was measured by isothermal titration microcalorimetry experiments. Titration microcalorimetry detects binding as heat originating from the intrinsic bond forming enthalpy change. […] In a separate experiment, the compounds were then assayed in the presence of zinc and a G-CSF/Fc fusion protein, which contained the extracellular domain of the G-CSF receptor presented in a dimeric form due to the Fc component.

| Molecule | activation in the luciferase assay (G-CSF receptor [1]) | peripheral blood neutrophil and monocyte count [2] | G-CSF agonist activity in the presence of EDTA (metal ion mediation) (G-CSF receptor [3]) | activation in the murine CFU-G assay (CFU-G) | affinity for G-CSF/Fc fusion protein (G-CSF/Fc fusion protein) | further results |
| --- | --- | --- | --- | --- | --- | --- |
| [Zn+2].c1ccc(C23NC(=Nc4nc5ccccc5[nH]4)NC2(c2ccccn2)NC(=Nc2nc4ccccc4[nH]2)N3)nc1.c1ccc(C23NC(=Nc4nc5ccccc5[nH]4)NC2(c2ccccn2)NC(=Nc2nc4ccccc4[nH]2)N3)nc1 (stereo not drawn) [Compound 1, Bis{2,5-bis[2-benzimidazolylimino]-3a,6a-bis(2-pyridyl)-1,2,3,3a,4,5,6,6a-octahydroimidazo[4,5-d]imidazole-N,N'}-zinc(II)] | above 150 % of control | – | – | – | – | – |
| c1ccc(C23NC(=Nc4nc5ccccc5[nH]4)NC2(c2ccccn2)NC(=Nc2nc4ccccc4[nH]2)N3)nc1 (stereo not drawn) [Compound 1a, 2,5-Bis[2-benzimidazolylimino]-3a,6a-bis(2-pyridyl)-1,2,3,3a,4,5,6,6a-octahydroimidazo[4,5-d]imidazole] | above 150 % of control | elevation of peripheral blood neutrophil and monocyte count | abrogated | above 150 % of control | high, submicromolar affinity | luciferase activity (G-CSF agonist activity) (G-CSF receptor [1]; NFS60 cells, absence of zinc, FIG. 1): < 150 % over background; luciferase activity (G-CSF receptor [1]; NFS60 cells, presence of 1 uM zinc (II), FIG. 2): about 350 % over control; G-CSF agonist efficacy (G-CSF receptor [1]; presence of 1 uM zinc(II), at 1 uM, FIG. 2): 350 % over background; effect of EDTA on luciferase activity (G-CSF receptor [3]; EDTA 1.2 millimolar, media contained 1-5 uM zinc(II), FIG. 3): antagonized |
| c1ccc(C23NC(=Nc4nc5ccccc5[nH]4)NC2(c2ccccc2)NC(=Nc2nc4ccccc4[nH]2)N3)cc1 (stereo not drawn) [Compound 2a, 2,5-Bis[2-benzimidazolylimino]-3a,6a-diphenyl-1,2,3,3a,4,5,6,6a-octahydroimidazo[4,5-d]imidazole] | above 150 % of control | – | – | – | – | – |
| Cc1ccc2nc(N=C3NC4(c5ccccn5)NC(=Nc5nc6ccccc6[nH]5)NC4(c4ccccn4)N3)[nH]c2c1.O=C(O)C(F)(F)F.O=C(O)C(F)(F)F (stereo not drawn) [Compound 3a, 5-(2-benzimidazolylimino)-2-[(5-methyl-2-benzimidazolyl)imino]-3a,6a-bis(2-pyridyl)-1,2,3,3a,4,5,6,6a-octahydroimidazo[4,5-d]imidazole bis(trifluoroacetate) salt] | above 150 % of control | elevation of peripheral blood neutrophil and monocyte count | – | above 150 % of control | high, submicromolar affinity | – |
| zinc (II) [reference compound] | – | – | – | – | – | effect of metal chlorides on the EDTA depleted activity of Compound 1a (G-CSF receptor [3]; 50 micromolar EDTA, metal at 0.5-10 micromolar, FIGS. 7 and 8): can overcome the inhibition |
| B1 | – | – | not mediated by metal ions | – | – | effect of EDTA on luciferase activity (G-CSF receptor [3]; EDTA 1.2 and 5 millimolar, FIG. 4): little effect |
